The record followed here is the NIST ThermoML archive (doi:10.1016/j.fluid.2014.01.033).

± gives the expanded uncertainty stated by the source.

For series [1] the following is noted: 298.15 K; 101.33 kPa; Liquid; Vibrating tube method.
A short description of series [2]: refractive index (Na D-line) (dimensionless). The following applies: 298.15 K; 101.33 kPa; Liquid; Standard Abbe refractometry.

Turning to `CC#N` [acetonitrile], the mass density – broadly, mass per unit of volume – in series [1] is 776.55 ± 0.19 kg/m3. Moreover, in series [2], the refractive index – broadly, a measure of how strongly the sample bends light – came out at 1.3413 ± 0.0007.
Take `c1ccccc1` [benzene]: the mass density in series [1] came out at 873.79 ± 0.17 kg/m3. Further, in series [2], the refractive index came to 1.4978 ± 0.0007.
As for `CCCCCC` [hexane], in series [1], the mass density is 655.12 ± 0.21 kg/m3. Also, in series [2], the refractive index was 1.3725 ± 0.0007.
